Results as given in patent publication US10519108B2, “Inhibitors of retinaldehyde dehydrogenases and methods of use” (The Board of Regents of the University of Oklahoma, priority 2015, dated 2019).

Key:
[1] = target: T1, retinaldehyde dehydrogenase 1 (RALDH1) (Homo sapiens, UniProt P00352); test: RALDH1 activity by NADH synthesis, fluorescence-based NADH sensor; assay type: biochemical; conditions: in the presence of DAR
T1 sequence (P00352 1-501): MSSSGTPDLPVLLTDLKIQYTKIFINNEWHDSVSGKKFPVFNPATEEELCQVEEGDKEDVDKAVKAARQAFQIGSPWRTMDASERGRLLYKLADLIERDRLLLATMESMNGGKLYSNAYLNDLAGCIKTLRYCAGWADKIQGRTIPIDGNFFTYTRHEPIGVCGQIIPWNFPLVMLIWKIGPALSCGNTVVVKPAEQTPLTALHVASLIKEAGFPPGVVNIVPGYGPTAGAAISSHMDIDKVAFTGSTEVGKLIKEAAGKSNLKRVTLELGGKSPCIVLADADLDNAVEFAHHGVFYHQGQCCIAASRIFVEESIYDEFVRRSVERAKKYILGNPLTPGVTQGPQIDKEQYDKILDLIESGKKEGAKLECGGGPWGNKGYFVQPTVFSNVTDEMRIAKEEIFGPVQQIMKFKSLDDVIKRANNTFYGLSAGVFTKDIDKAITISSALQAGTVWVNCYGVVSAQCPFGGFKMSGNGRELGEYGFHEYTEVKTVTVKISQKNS

RALDH2 = target: T2, RALDH2 (Homo sapiens, UniProt O94788); test: RALDH2 activity by NADH synthesis, fluorescence-based NADH sensor; assay type: biochemical
T2 sequence (O94788 1-518): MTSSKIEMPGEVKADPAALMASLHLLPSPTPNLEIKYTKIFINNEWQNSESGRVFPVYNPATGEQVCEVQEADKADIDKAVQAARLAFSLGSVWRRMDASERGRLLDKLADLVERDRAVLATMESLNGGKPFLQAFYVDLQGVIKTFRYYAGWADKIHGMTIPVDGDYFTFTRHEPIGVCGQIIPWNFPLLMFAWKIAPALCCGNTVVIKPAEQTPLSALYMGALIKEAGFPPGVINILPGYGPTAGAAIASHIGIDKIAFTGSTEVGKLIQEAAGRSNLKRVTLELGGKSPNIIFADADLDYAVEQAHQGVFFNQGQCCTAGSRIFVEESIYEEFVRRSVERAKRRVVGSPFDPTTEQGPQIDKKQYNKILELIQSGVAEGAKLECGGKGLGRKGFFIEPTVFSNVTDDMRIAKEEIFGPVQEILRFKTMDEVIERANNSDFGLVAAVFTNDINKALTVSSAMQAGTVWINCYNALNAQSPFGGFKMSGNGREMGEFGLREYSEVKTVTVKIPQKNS

RALDH3 = target: T3, RALDH3 (Homo sapiens, UniProt P47895); test: RALDH3 activity by NADH synthesis, fluorescence-based NADH sensor; assay type: biochemical; conditions: in the presence of DAR
T3 sequence (P47895 1-512): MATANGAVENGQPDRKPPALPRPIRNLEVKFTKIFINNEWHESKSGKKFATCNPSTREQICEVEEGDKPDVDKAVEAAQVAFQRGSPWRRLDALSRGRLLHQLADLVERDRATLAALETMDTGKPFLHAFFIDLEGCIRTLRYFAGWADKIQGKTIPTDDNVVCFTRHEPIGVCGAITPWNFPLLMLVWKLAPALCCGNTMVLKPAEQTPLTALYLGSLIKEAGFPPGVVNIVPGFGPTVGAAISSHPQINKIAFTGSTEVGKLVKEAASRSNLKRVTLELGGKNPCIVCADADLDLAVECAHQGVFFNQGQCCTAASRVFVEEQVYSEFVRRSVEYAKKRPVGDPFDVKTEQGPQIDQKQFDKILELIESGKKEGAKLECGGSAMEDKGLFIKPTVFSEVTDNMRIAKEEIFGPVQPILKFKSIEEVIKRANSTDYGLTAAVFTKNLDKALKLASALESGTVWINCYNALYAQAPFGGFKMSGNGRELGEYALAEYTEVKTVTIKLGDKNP

[2] = target: T4, aldehyde dehydrogenase 2 (ALDH2) (Homo sapiens, UniProt P05091); test: ALDH2 activity by NADH synthesis, absorbance at 340 nm; assay type: biochemical
T4 sequence (P05091 18-517): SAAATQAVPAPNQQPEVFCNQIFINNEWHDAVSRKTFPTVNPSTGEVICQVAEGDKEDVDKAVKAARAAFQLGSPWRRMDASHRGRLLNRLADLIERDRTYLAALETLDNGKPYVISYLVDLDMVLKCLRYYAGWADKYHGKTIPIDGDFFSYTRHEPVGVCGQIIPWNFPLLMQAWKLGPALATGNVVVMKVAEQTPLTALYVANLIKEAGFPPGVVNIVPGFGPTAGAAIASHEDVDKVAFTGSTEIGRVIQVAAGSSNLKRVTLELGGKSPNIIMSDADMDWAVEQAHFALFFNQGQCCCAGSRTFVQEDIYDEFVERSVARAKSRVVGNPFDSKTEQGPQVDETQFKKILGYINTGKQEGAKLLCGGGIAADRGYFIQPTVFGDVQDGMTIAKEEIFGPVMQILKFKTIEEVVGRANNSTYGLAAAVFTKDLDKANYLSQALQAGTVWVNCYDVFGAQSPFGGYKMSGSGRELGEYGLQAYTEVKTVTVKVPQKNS

RALDH = RALDH activity in recovering choroid tissue homogenates, atRA synthesis by HPLC; assay type: biochemical; conditions: choroid cytosol fractions, DAR 5-25 μM, NAD 4 mM, all-trans-retinaldehyde 25 μM, 37° C. 30 min
Description: RALDH activity was assessed in choroid tissue homogenates in the presence of DAR (5-25 μM), or vehicle (EtOH) by measuring all-trans-retinoic acid (atRA) synthesis. Choroid cytosol fractions were incubated in the presence of cofactor NAD (4 mM) and all-trans-retinaldehyde (25 μM) at 37° C. for 30 min. Following incubation, retinoids were extracted and quantified using HPLC.

spermatogenesis = conditions: cited from earlier work

| activity of RALDH1 assessed by NADH synthesis [1] | IC50 (RALDH2; NADH synthesis, 95% C.I.=41.0-66.4 nM) | activity of RALDH2 assessed by NADH synthesis (RALDH2; in the presence of DAR, fluorescence-based NADH sensor) | activity of RALDH3 assessed by NADH synthesis (RALDH3) | Structure (SMILES) | effect on ALDH2 assessed by NADH synthesis [2] | retinoic acid (atRA) synthesis by RALDH (RALDH) | inhibition of spermatogenesis (spermatogenesis; human males) | reactions in patients who consumed alcohol (spermatogenesis; human, alcohol consumed while taking compound, due to inhibition of ALDH2) |
| --- | --- | --- | --- | --- | --- | --- | --- | --- |
| effectively inhibits | 52.2 nM | effectively inhibits | effectively inhibits | CC1=C(/C=C/C(C)=C/C=C/C(C)=C/C(=O)C(Cl)Cl)C(C)(C)CCC1 [DAR, (3E,5E,7E,9E)-1,1-dichloro-4,8-dimethyl-10-(2,6,6-trimethylcyclohex-1-en-1-yl)deca-3,5,7,9-tetraen-2-one] | does not significantly inhibit | significantly inhibited | – | – |
| – | – | – | – | O=C(NCCCCCCCCNC(=O)C(Cl)Cl)C(Cl)Cl [WIN-18446] | non-specific ALDH2 inhibitor | – | potent, reversible inhibitor of spermatogenesis | violent “disulfiram” reactions |
